Assay results reported in US10093670B2, “Azabenzimidazole derivative having AMPK-activating activity” (Shionogi & Co., Ltd., priority 2011, dated 2018).

Target: T1, human AMPK α1β1γ1 enzyme (Homo sapiens, UniProt Q13131+Q9Y478)
T1 construct: purchased Carna Biosciences, Inc
Test: Evaluation of AMPK activator, Test Example 1 (mobility-shift kinase assay, FL-Peptide 7)
Type: biochemical
Details: for EC150 (compound concentration showing 150% relative to the control (100%)): human AMPK α1β1γ1, 25° C., 2 hours, 0.2 mM ATP final; for Emax: read-out: Emax (maximum rate of increase in activity within the measurement range)
Experimental: The obtained liquid was left to stand for 10 minutes.
The obtained liquid was allowed to react at 25° C. for 2 hours, and 10 μl of 20 mM EDTA was then added thereto to stop the reaction.
To detect phosphorylated fluorescent substrates, the reaction liquid was applied to a measuring device, LabChip EZ Reader II manufactured by Caliper Life Science, Inc., for detecting fluorescence by using differences in mobility due to differences in charge. The setting conditions for the device were pressure, −1.5 PSI; upstream voltage, −2250 V; downstream voltage, −400 V; post sample buffer sip time, 40 seconds; final delay, 120 seconds; and peak order, Product First.
A conversion rate was calculated from the peak heights of the resulting substrate and product. The conversion rate when not containing a compound was used as a control, and a concentration dependent curve was made by plotting the rate of increase in activity to the control at each concentration of a compound.

[1] = human AMPK α1β1γ1, relative to control (100%)

T1 sequence (Q13131 10-559 limits assumed): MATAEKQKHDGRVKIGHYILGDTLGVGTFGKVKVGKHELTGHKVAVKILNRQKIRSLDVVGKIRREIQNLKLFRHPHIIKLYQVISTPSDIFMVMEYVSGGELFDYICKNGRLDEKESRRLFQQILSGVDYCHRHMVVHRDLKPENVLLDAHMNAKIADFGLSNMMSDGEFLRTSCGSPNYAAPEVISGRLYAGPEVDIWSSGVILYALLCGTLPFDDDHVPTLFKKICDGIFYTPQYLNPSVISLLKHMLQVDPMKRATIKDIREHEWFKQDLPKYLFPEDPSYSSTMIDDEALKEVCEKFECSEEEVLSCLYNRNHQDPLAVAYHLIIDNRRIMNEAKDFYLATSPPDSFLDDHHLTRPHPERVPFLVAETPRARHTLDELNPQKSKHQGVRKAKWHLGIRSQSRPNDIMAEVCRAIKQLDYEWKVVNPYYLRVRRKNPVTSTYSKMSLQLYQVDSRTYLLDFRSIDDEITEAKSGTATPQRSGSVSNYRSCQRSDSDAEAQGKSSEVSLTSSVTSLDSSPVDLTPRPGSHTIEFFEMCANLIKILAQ
T1 sequence (Q9Y478 whole entry): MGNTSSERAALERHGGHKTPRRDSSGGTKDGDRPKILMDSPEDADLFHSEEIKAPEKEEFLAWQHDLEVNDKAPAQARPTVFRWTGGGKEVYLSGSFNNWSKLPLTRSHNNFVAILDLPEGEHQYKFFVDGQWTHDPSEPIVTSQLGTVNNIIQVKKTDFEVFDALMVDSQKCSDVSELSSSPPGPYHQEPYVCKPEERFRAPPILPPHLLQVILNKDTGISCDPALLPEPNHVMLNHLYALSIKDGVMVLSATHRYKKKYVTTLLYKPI
T1 sequence (P54619 whole entry partner): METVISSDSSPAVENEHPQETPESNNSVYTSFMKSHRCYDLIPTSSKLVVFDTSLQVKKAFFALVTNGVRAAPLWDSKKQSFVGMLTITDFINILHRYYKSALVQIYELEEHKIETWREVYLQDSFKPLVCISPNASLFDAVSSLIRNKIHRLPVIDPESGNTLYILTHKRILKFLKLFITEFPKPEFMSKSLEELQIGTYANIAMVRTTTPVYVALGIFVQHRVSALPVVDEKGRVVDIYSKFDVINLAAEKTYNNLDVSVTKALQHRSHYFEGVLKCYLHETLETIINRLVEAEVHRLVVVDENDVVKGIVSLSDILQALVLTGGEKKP

| SMILES | EC150 (compound concentration showing 150% relative to the control (100%)) [nM] | Emax [1] [%] | Emax (maximum rate of increase in activity within the measurement range) [1] [%] |
| --- | --- | --- | --- |
| O=C(c1ccc(-c2ccc(-c3nc4nc(O[C@H]5CC[C@H](C(=O)O)CC5)[nH]c4cc3Cl)cc2)cc1)N1CCOCC1 [Compound I-2-61] | 72 | 189 |  |
| CN(C)C(=O)N1CC(Oc2nc3nc(-c4ccc(C5=CCC(C(=O)O)CC5)cc4)c(Cl)cc3[nH]2)C1 (stereo not shown) [Compound I-2-71] | 2400 | 193 |  |
| O=C(O)C[C@H]1CC[C@H](Oc2nc3nc(-c4ccc(C5=CCOCC5)cc4)c(Cl)cc3[nH]2)CC1 [Compound I-2-85] | 18 | 255 |  |
| CC(Oc1nc2nc(-c3ccc(N4CCOCC4)cc3)c(Cl)cc2[nH]1)[C@H]1CC[C@H](C(=O)O)CC1 (stereo partly shown) [Compound I-2-88] | 65 | 288 |  |
| CC(Oc1nc2nc(-c3ccc(C4=CCC(C(=O)O)CC4)cc3)c(Cl)cc2[nH]1)c1ccccn1 (stereo not shown) [Compound I-2-104] | 6400 | 161 |  |
| CC(C)(COc1nc2nc(-c3ccc(N4CCOCC4)cc3)c(Cl)cc2[nH]1)C(=O)O [Compound I-2-109] | 250 | 212 |  |
| CC(Oc1nc2nc(-c3ccc(N4CCCC4)cc3)c(Cl)cc2[nH]1)c1noc(=O)[nH]1 (stereo not shown) [Compound I-2-114] | 49 | 215 |  |
| O=C(O)C1(COc2nc3nc(-c4ccc(N5CCOCC5)cc4)c(Cl)cc3[nH]2)CC1 [Compound I-2-116] | 130 | 229 |  |
| O=C(O)[C@H]1C[C@H](Oc2nc3nc(-c4ccc(N5CCOCC5)cc4)c(Cl)cc3[nH]2)C1 [Compound I-2-118] |  | 194 |  |
| CC(Oc1nc2nc(-c3ccc(N4CCOCC4)cc3)c(Cl)cc2[nH]1)C(C)(C)C(=O)O (stereo not shown) [Compound I-2-121] | 160 | 258 |  |
| CN(CCO)C(=O)N1CCC(Oc2nc3nc(-c4ccc(C5=CCC(C(=O)O)CC5)cc4)c(Cl)cc3[nH]2)CC1 (stereo not shown) [Compound I-3-2] | 1.4 | 182 |  |
| CN(C)C(=O)[C@H]1C[C@@H](Oc2nc3nc(-c4ccc(C5=CCC(C(=O)O)CC5)cc4F)c(Cl)cc3[nH]2)C1 (stereo partly shown) [Compound I-3-3] | 19 | 271 |  |
| CCC(Oc1nc2nc(-c3ccc(N4CCOCC4)cc3)c(Cl)cc2[nH]1)C(=O)O (stereo not shown) [Compound I-3-11] | 61 | 240 |  |
| Clc1cc2[nH]c(OC3CCOCC3)nc2nc1-c1ccc(N2CCOCC2)cc1 [Compound I-3-12] | 21 | 211 |  |
| CC(Oc1nc2nc(-c3ccc(C4=CCC(C(=O)O)CC4)cc3)c(Cl)cc2[nH]1)C(N)=O (stereo not shown) [Compound I-3-14] | 130 | 232 |  |
| CC(C)(C(N)=O)C1CCC(Oc2nc3nc(-c4ccc(N5CCOCC5)cc4)c(Cl)cc3[nH]2)CC1 (stereo not shown) [Compound I-3-25] | 230 | 210 |  |
| O=C(O)C1CC=C(c2ccc(-c3nc4nc(OC5CCOCC5)[nH]c4cc3Cl)cc2)CC1 (stereo not shown) [Compound I-3-26] | 68 | 221 |  |
| CC(C)C(Oc1nc2nc(-c3ccc(N4CCOCC4)cc3)c(Cl)cc2[nH]1)C(=O)O (stereo not shown) [Compound I-3-27] | 280 | 228 |  |
| CC(=O)N1CC=C(c2ccc(-c3nc4nc(OC5CCC(C(C)(C)C(=O)O)CC5)[nH]c4cc3Cl)cc2)CC1 (stereo not shown) [Compound I-3-39] | 5.1 | 286 |  |
| CC(C)(C(=O)O)C1CCC(Oc2nc3nc(-c4ccc(N5CCCC5)cc4)c(Cl)cc3[nH]2)CC1 (stereo not shown) [Compound I-3-44] | 7.6 | 275 |  |
| CCC(Oc1nc2nc(-c3ccc(C4=CCC(NC(C)=O)CC4)cc3)c(Cl)cc2[nH]1)C(N)=O (stereo not shown) [Compound I-3-50] | 160 | 228 |  |

| SMILES | EC150 (compound concentration showing 150% relative to the control (100%)) [nM] | Emax [1] [%] | Emax (maximum rate of increase in activity within the measurement range) [1] [%] |
| --- | --- | --- | --- |
| CC(C)(C(=O)O)[C@]1(O)CC[C@@H](Oc2nc3nc(-c4ccc(N5CCCCC5)cc4)c(Cl)cc3[nH]2)CC1 [Compound I-3-51] | 4.5 | 338 |  |
| CN1CCc2cc(-c3nc4nc(O[C@H]5CC[C@](O)(C(C)(C)C(=O)O)CC5)[nH]c4cc3Cl)ccc21 [Compound I-3-52] | 2.3 | 400 |  |
| O=C(O)C1CCC(Oc2nc3nc(-c4ccc(N5CCOCC5)cc4)c(Cl)cc3[nH]2)C1 (stereo not shown) [Compound I-3-53] | 51 | 261 |  |
| CC(C)(C(=O)O)[C@]1(O)CC[C@@H](Oc2nc3nc(-c4c(F)cc(N5CCOCC5)cc4F)ccc3[nH]2)CC1 [Compound I-3-62] | 22 | 333 |  |
| CC(=O)NC1CCN(c2ccc(-c3nc4nc(OC5CCC(C(C)(C)C(=O)O)CC5)[nH]c4cc3Cl)cc2)CC1 (stereo not shown) [Compound I-3-65] | 24 | 233 |  |
| CC(C)(C(=O)O)[C@]1(O)CC[C@@H](Oc2nc3nc(-c4ccc(-c5ccccc5)cc4)c(Cl)cc3[nH]2)CC1 [Compound I-3-66] | 3.4 | 389 |  |
| CCC(Oc1nc2nc(-c3ccc(N4CCCC4)cc3)c(Cl)cc2[nH]1)c1cc(O)no1 (stereo not shown) [Compound I-3-69] | 60 | 259 |  |
| O=C(O)[C@]1(O)CC[C@@H](Oc2nc3nc(-c4ccc(N5CCOCC5)cc4)c(Cl)cc3[nH]2)CC1 [Compound I-3-75] | 47 | 236 |  |
| CC(C)(C(=O)O)[C@]1(O)CC[C@@H](Oc2nc3nc(-c4ccc(N5CCOCC5)cc4)c(Cl)cc3[nH]2)CC1 [Compound I-3-83] | 24 |  | 278 |
| CN(C)C(=O)N1CC=C(c2ccc(-c3nc4nc(O[C@H]5CC[C@H](C(C)(C)C(=O)O)CC5)[nH]c4cc3Cl)cc2)CC1 [Compound I-3-85] | 4.9 | 276 |  |
| CC(C)(CO)C1CCC(Oc2nc3nc(-c4ccc(N5CCOCC5)cc4)c(Cl)cc3[nH]2)CC1 (stereo not shown) [Compound I-3-89] |  | 236 |  |
| CN(C)C(=O)[C@H]1C[C@@H](Oc2nc3nc(-c4ccc(-c5ccc(C(=O)O)cc5)cc4)c(Cl)cc3[nH]2)C1 [Compound I-3-91] | 21 | 287 |  |
| CC(=O)N1CC=C(c2ccc(-c3nc4nc(OC5CCC(C(C)(C)CO)CC5)[nH]c4cc3Cl)cc2)CC1 (stereo not shown) [Compound I-3-92] | 23 | 303 |  |
| CC(C)(C(=O)O)C1CCC(Oc2nc3nc(-c4ccc(C5=CCOCC5)cc4)c(Cl)cc3[nH]2)CC1 (stereo not shown) [Compound I-3-93] | 9.6 | 301 |  |
| CC(C)(C(=O)O)[C@H]1CC[C@H](Oc2nc3nc(-c4ccc(-c5ccccc5O)cc4)c(Cl)cc3[nH]2)CC1 [Compound I-3-97] | 0.68 | 343 |  |
| O=C(c1ccc(-c2ccc(-c3nc4nc(O[C@H]5CC[C@H](C(=O)O)CC5)[nH]c4cc3Cl)cc2)cc1)N1CCC(O)CC1 [Compound I-3-104] | 21 | 203 |  |
| CC(C)(C(=O)O)[C@H]1CC[C@H](Oc2nc3nc(-c4ccc(-c5ccc(C(=O)N6CCC(O)CC6)cc5)cc4)c(Cl)cc3[nH]2)CC1 [Compound I-3-106] | 9.1 | 311 |  |
| CC(C)(C(=O)O)[C@H]1CC[C@H](Oc2nc3nc(-c4ccc(-c5ccc(C(=O)N6CCOCC6)cc5)cc4)c(Cl)cc3[nH]2)CC1 [Compound I-3-108] | 8.2 | 291 |  |
| O=C(O)c1ccc(-c2ccc(-c3nc4nc(O[C@H]5C[C@@H](C(=O)N6CC(O)C6)C5)[nH]c4cc3Cl)cc2)cc1 [Compound I-3-115] | 23 | 260 |  |
| CC(C)(C(=O)O)[C@H]1CC[C@H](Oc2nc3nc(-c4ccc(-c5ccc(C(N)=O)cc5)cc4)c(Cl)cc3[nH]2)CC1 [Compound I-3-119] | 1.6 | 300 |  |
| O=C(O)C1([C@]2(O)CC[C@@H](Oc3nc4nc(-c5ccc(N6CCOCC6)cc5)c(Cl)cc4[nH]3)CC2)CCC1 [Compound I-3-123] | 18 | 243 |  |
